Measured values taken from ChEMBL document CHEMBL1201862, “PubChem BioAssay data set” (2004).
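Values below derive from 48-hour exposures of cells grown in 96-well plates, with endpoints linearly interpolated between the two concentrations bracketing the appropriate inhibition level. Here, GI50 denotes the concentration required for 50% inhibition of growth.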 The source made the active and inactive calls. Rule as the data show it: active = GI50 up to about 1.1 µM and inactive = higher.

Assays:
Test in all cases: NCI tumour cell line growth inhibition, 48 h
[1] = tested on: M14
[2] = tested on: K562
[3] = tested on: MDA-N
[4] = tested on: EKVX
[5] = tested on: SF-295
[6] = tested on: 786-0
[7] = tested on: PC-3
[8] = tested on: OVCAR-3
[9] = tested on: NCI/ADR-RES
[10] = tested on: SN12C
[11] = tested on: KM12
[12] = tested on: IGROV-1
[13] = tested on: SK-MEL-2
[14] = tested on: HT-29
[15] = tested on: MDA-MB-435
[16] = tested on: COLO 205
[17] = tested on: U-251
[18] = tested on: SK-MEL-28
[19] = tested on: SK-OV-3
[20] = tested on: MOLT-4

Measured: GI50

Cc1onc(-c2c(F)cccc2Cl)c1C(=O)N[C@@H]1C(=O)N2[C@@H]1SC(C)(C)[C@@H]2C(=O)O
inactive: [1] > 100 µM | [2] > 100 µM | [3] > 100 µM | [4] > 100 µM | [5] > 100 µM | [6] > 100 µM | [7] > 100 µM | [8] > 100 µM | [9] > 100 µM | [10] > 100 µM | [11] > 100 µM | [12] > 100 µM | [13] > 100 µM | [14] > 100 µM | [15] > 100 µM | [16] > 100 µM | [17] > 100 µM | [18] > 100 µM | [19] > 100 µM

CC(=O)NC1C(OCc2ccccc2)OC(CO)C(O)C1OCC(=O)NC(C)C(=O)NC(CCC(=O)NCCCCNc1ccc([N+](=O)[O-])c2[nH]c3ccccc3c(=O)c12)C(N)=O (stereo not given)
inactive: [1] 71.1 µM | [2] > 100 µM | [3] > 100 µM | [4] 88.5 µM | [5] 34.6 µM | [6] 42.9 µM | [7] > 100 µM | [8] > 100 µM | [9] > 100 µM | [10] > 100 µM | [11] 90.2 µM | [12] 56 µM | [13] > 100 µM | [14] 69.3 µM | [15] > 100 µM | [16] > 100 µM | [17] 79.1 µM | [18] > 100 µM | [19] > 100 µM

CC(=O)Nn1c(=S)[nH]c2ccccc21
inactive: [1] > 100 µM | [2] > 100 µM | [3] > 100 µM | [4] > 100 µM | [5] > 100 µM | [6] > 100 µM | [7] > 100 µM | [9] > 100 µM | [20] > 100 µM | [10] > 100 µM | [11] > 100 µM | [12] > 100 µM | [13] > 100 µM | [14] > 100 µM | [15] > 100 µM | [16] > 100 µM | [17] > 100 µM | [18] > 100 µM | [19] > 100 µM

O=c1c(Sc2c(SCSc3cnc4ccccc4c3Sc3c[nH]c4ccccc4c3=O)cnc3ccccc23)c[nH]c2ccccc12
inactive: [1] > 100 µM | [3] > 100 µM | [4] > 100 µM | [5] > 100 µM | [6] > 100 µM | [7] > 10 µM | [8] > 100 µM | [9] > 100 µM | [20] > 100 µM | [10] > 100 µM | [11] > 100 µM | [12] 88.9 µM | [13] > 10 µM | [14] > 100 µM | [15] 31.1 µM | [16] > 100 µM | [17] 25.5 µM | [18] 22.9 µM

O=c1c(-c2ccccc2)c(SCCN2CCCC2)n(-c2ccccc2)c(=S)n1-c1ccccc1
inactive: [1] > 100 µM | [2] > 100 µM | [3] > 100 µM | [4] > 100 µM | [5] > 100 µM | [6] > 100 µM | [7] > 100 µM | [9] > 100 µM | [20] > 100 µM | [10] > 100 µM | [11] > 100 µM | [12] > 100 µM | [13] > 100 µM | [14] > 100 µM | [15] > 100 µM | [16] > 100 µM | [17] > 100 µM | [18] > 100 µM | [19] > 100 µM

CN(C(=O)CC(=O)CP(=O)(c1ccccc1)c1ccccc1)c1ccccc1
inactive: [1] > 100 µM | [2] > 100 µM | [3] > 100 µM | [4] > 100 µM | [5] > 100 µM | [6] > 100 µM | [7] > 100 µM | [8] > 100 µM | [9] > 100 µM | [20] > 100 µM | [10] > 100 µM | [11] > 100 µM | [12] > 100 µM | [14] > 100 µM | [15] > 100 µM | [16] > 100 µM | [17] > 100 µM | [18] > 100 µM | [19] > 100 µM

c1ccc(C2=C(c3ccccc3)P(c3ccccc3)C2)cc1 (stereo not given)
inactive: [1] > 100 µM | [3] > 100 µM | [5] 41 µM | [6] > 100 µM | [7] 48.1 µM | [8] 78.7 µM | [9] 40.1 µM | [20] 22.1 µM | [10] > 100 µM | [11] 49.7 µM | [12] 64.3 µM | [13] > 100 µM | [14] > 100 µM | [15] 57.4 µM | [16] > 100 µM | [17] 68.1 µM | [18] > 100 µM | [19] > 100 µM

O=C1NC(=S)N/C1=C\c1cc2c(=O)c3ccccc3sc2s1
inactive: [2] 29.9 µM | [3] 87.7 µM | [4] 3.51 µM | [5] 70.5 µM | [6] 40.2 µM | [7] 72.1 µM | [8] 54.1 µM | [9] > 100 µM | [20] 23.5 µM | [10] > 100 µM | [11] > 100 µM | [12] 40.7 µM | [13] > 100 µM | [14] 55.1 µM | [15] > 100 µM | [16] 47.4 µM | [17] 30.7 µM | [18] 40.4 µM

C=CCN1CCC(OC(=O)C(O)(/C=C\CC)C2CCCC2)CC1 (stereo not given)
inactive: [1] > 100 µM | [2] > 100 µM | [3] > 100 µM | [4] > 100 µM | [5] > 100 µM | [6] > 100 µM | [7] > 100 µM | [8] > 100 µM | [9] > 100 µM | [20] > 100 µM | [10] > 100 µM | [12] > 100 µM | [13] > 100 µM | [14] > 100 µM | [15] > 100 µM | [16] > 100 µM | [17] > 100 µM | [18] > 100 µM | [19] > 100 µM

CN1CC2CC(C1)c1cccc(=O)n1C2 (stereo not given)
inactive: [1] > 100 µM | [3] > 100 µM | [4] > 100 µM | [5] > 100 µM | [6] > 100 µM | [7] > 100 µM | [8] > 100 µM | [9] > 100 µM | [10] > 100 µM | [11] > 100 µM | [12] > 100 µM | [13] > 100 µM | [14] > 100 µM | [15] > 100 µM | [16] > 100 µM | [17] > 100 µM | [19] > 100 µM
